The supplement of paper PMC10307832

How the values were obtained:
Assay in all cases: relative viability (nuclei count vs DMSO), 5 days (fraction); higher = more cells survive
[1] = compound: C1=CC=C2C(=C1)N=C(S2)C(C#N)C3=NC(=NC=C3)NCCC4=CN=CC=C4
How it was run: (§1)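 Five library-drug doses spaced by √10 were pinned onto vehicle-anchored 1536-well plates of lung cancer cell lines that had been kept overnight at 37 °C. Cells went 5 days without medium change, then were fixed, permeabilised and Hoechst-stained together, imaged at 4× and counted by MetaXpress. Viability is the ratio of treated-well to vehicle-well nuclei, taken as a median over plates. Plates required control CV below 25% and at least one doubling.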

[2] = compound: COc1cc2/c(=N/c3ccc(Br)cc3F)nc[nH]c2cc1OCC1CCN(C)CC1 [Vandetanib]
How it was run: as §1

[3] = compound: C#Cc1cccc(Nc2ncnc3cc(OC)c(OCCCCCCC(=O)NO)cc23)c1 [CUDC-101] + COc1cc2c(Oc3ccc(NC(=O)C4(C(=O)Nc5ccc(F)cc5)CC4)cc3F)ccnc2cc1OCCCN1CCOCC1 [Foretinib] (partner 0.25 µM)
How it was run: (§2)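 Cells from lung cancer lines were seeded into 1536-well plates and, one day later, dosed by pin tool. Treatments were either a single drug or a fixed dose of an anchor drug with five library-drug doses (not always all listed) in √10 steps. After 5 days, nuclei were stained in a one-step fixation (final 0.05% Triton X-100, 1% formaldehyde, 1 ug/ml Hoechst) and counted on 4× images, and relative viability is the treated-to-vehicle nuclei ratio, as the median of duplicate plates.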

[4] = compound: COc1cc(N2CCC(N3CCN(C)CC3)CC2)ccc1Nc1ncc(Cl)c(Nc2ccccc2S(=O)(=O)C(C)C)n1 [NVP-TAE684] + Nc1nc2[nH]cc(CCc3ccc(C(=O)N[C@@H](CCC(=O)O)C(=O)O)cc3)c2c(=O)[nH]1 [Pemetrexed] (partner 0.2 µM)
How it was run: as §2

Row | Cell Line | relative viability ([1]; 0.005 µM) | relative viability ([1]; 0.01581 µM) | relative viability ([1]; 0.05 µM) | relative viability ([1]; 0.1581 µM) | relative viability ([1]; 0.5 µM) | relative viability ([2]; 0.02 µM) | relative viability ([2]; 0.06325 µM) | relative viability ([2]; 0.2 µM) | relative viability ([2]; 0.6325 µM) | relative viability ([2]; 2 µM) | relative viability ([3]; first compound 0.01 µM) | relative viability ([3]; first compound 0.03162 µM) | relative viability ([3]; first compound 0.1 µM) | relative viability ([3]; first compound 0.3162 µM) | relative viability ([3]; first compound 1 µM) | relative viability ([4]; first compound 0.2 µM) | relative viability ([4]; first compound 0.6325 µM) | relative viability ([4]; first compound 2 µM)
1 | NCI-H322M | 0.745 | 0.839 | 0.924 | 0.951 | 0.914 | 0.895 | 0.879 | 0.872 | 0.797 | 0.538 | 0.833 | 0.706 | 0.834 | 0.703 | 0.503 | 0.635 | 0.593 | 0.479
2 | NCI-H358 | 0.784 | 0.904 | 0.823 | 1.06 | 0.913 | 0.918 | 0.86 | 0.877 | 0.731 | 0.568 | 0.815 | 0.565 | 0.759 | 0.675 | 0.179 | 0.166 | 0.151 | 0.13
3 | NCI-H441 |  | 1.12 | 1 | 1.27 | 0.871 | 1.03 | 0.948 | 0.983 | 1.15 | 0.939 | 0.976 | 1.23 | 1.05 | 0.978 | 0.937 | 0.271 | 0.29 | 0.223
4 | NCI-H460 | 0.925 | 0.999 | 0.995 | 1.14 | 0.934 | 0.964 | 0.992 | 1.02 | 1 | 0.963 | 0.991 | 0.917 | 1.02 | 1.03 | 0.93 | 0.0526 | 0.0587 | 0.0483
5 | NCI-H520 | 0.847 | 0.973 | 0.953 | 0.968 | 0.96 | 0.995 | 0.986 | 0.925 | 0.95 | 0.938 | 0.961 | 0.746 | 0.804 | 0.752 | 0.509 | 0.694 | 0.823 | 0.326
6 | NCI-H596 | 0.791 | 0.962 | 1.01 | 1.07 | 0.928 | 0.937 | 0.876 | 0.954 | 0.993 | 1 | 0.862 | 0.902 | 0.787 | 0.752 | 0.729 | 0.56 | 0.43 | 0.45
7 | NCI-H647 | 0.814 | 0.997 | 0.927 | 1.16 | 0.893 | 0.965 | 0.946 | 0.968 | 0.933 | 0.872 | 1.16 | 1.11 | 1.14 | 1.21 | 0.877 | 0.18 | 0.148 | 0.106
8 | NCI-H650 | 0.86 | 0.782 | 1.04 | 1.14 | 1.02 | 1.02 | 1 | 0.907 | 1.06 | 0.403 | 1.07 | 1.01 | 1.03 | 1.15 | 0.801 | 0.901 | 0.939 | 0.757
9 | NCI-H661 | 1.05 | 1.02 | 0.941 | 0.998 | 1.02 | 0.943 | 0.989 | 0.967 | 1.05 | 0.901 | 1.06 | 0.861 | 1.05 | 0.98 | 0.536 | 0.959 | 0.924 | 0.894
10 | NCI-H838 | 0.902 | 0.954 | 0.968 | 1.1 | 0.953 | 0.938 | 0.902 | 0.973 | 0.94 | 0.957 | 1.04 | 1.02 | 1.08 | 1.23 | 0.862 | 0.25 | 0.239 | 0.17
11 | NCI-H1355 | 0.934 | 0.931 | 0.986 | 1.1 | 0.912 | 0.997 | 0.892 | 1.01 | 1.02 | 0.957 | 1.08 | 1.01 | 1.03 | 1.07 | 0.821 | 1.01 | 0.984 | 0.793
12 | NCI-H1395 | 0.876 |  | 0.922 | 1.11 | 0.995 | 0.909 | 0.954 | 0.856 | 0.938 | 0.795 | 1.05 | 0.846 | 1.01 | 1.09 | 0.844 | 0.971 | 0.831 | 0.823
13 | NCI-H1437 | 0.901 | 0.947 | 0.988 | 1.1 | 0.966 | 0.937 | 0.968 | 0.955 | 1.03 | 0.981 | 1.38 | 1.08 | 1.27 | 1.38 | 1.27 | 0.354 | 0.327 | 0.243
14 | NCI-H1563 | 0.778 | 0.944 | 0.899 | 0.995 | 0.946 | 0.973 | 1.07 | 0.989 | 1.03 | 0.94 | 0.925 | 0.872 | 0.851 | 0.895 | 0.87 | 0.757 | 0.692 | 0.654
15 | NCI-H1650 | 0.89 | 0.816 | 0.922 | 1 | 0.774 | 0.997 | 0.736 | 0.843 | 0.855 | 0.705 | 1.09 | 0.615 | 0.976 | 0.905 | 0.59 | 0.382 | 0.35 | 0.353
16 | NCI-H1651 | 0.884 | 1.02 | 1.14 | 1.07 | 0.984 | 0.943 | 0.961 | 0.979 | 0.96 | 0.893 | 0.821 | 0.741 | 1.07 | 0.82 | 0.609 | 0.594 | 0.566 | 0.565
17 | NCI-H1666 | 1.09 | 0.988 | 1.04 | 1.01 | 0.99 | 0.991 | 0.932 | 0.891 | 1.01 | 0.918 | 0.958 | 0.979 | 1 | 1.06 | 0.932 | 0.985 | 0.796 | 0.77
